17 compounds from patent US20120258967A1, “PI3 KINASE INHIBITORS AND USES THEREOF” (AVILA THERAPEUTICS, INC., priority 2011, published 2012) can be followed below.

One assay addresses T1, PI3Kα (p110α/p85α) (Homo sapiens, UniProt P42336).
T1 construct: purchased BPS Bioscience or Millipore
Briefly: HTRF assay, potency against active PI3Kα. The class given is biochemical. To be noted: [ATP]=50 μM, read-out: PI3Kα Inhibition. How it is done:
Compounds of the present invention are assayed as inhibitors of PI3 kinases using the following general protocol.
Homogeneous Time Resolved Fluorescence (HTRF) Assay Protocol for Potency Assessment Against the Active Forms of PI3Kα, PI3Kβ, and PI3Kγ
The protocol below describes an end-point, competition-binding HTRF assay used to measure inherent potency of test compounds against active PI3Kα (p110α/p85α), PI3Kβ (p110β/p85α), and PI3Kγ (p120γ) enzymes. The mechanics of the assay platform are best described by the vendor (Millipore, Billerica, Mass.) on their website at the following URL: www.millipore.com/coa/tech1/74jt4z.
Briefly, Stop solution (Stop A, #33-007 and Stop B, #33-009; 3:1 ratio) and Detection Mix (from DMC, #33-015 with DMA, #33-011 and DMB, #33-013; 18:1:1 ratio) were prepared as recommended by the manufacturer about 2 hrs prior to use. Additionally, 1× reaction buffer (from 4× buffer stock #33-003), 1.4× stocks of PI3Kα, PI3Kβ, and PI3Kγ enzymes from BPS Bioscience (San Diego, Calif.) or Millipore (Billerica, Mass.) with di-C8-PIP2 lipid substrate (#33-005), and a 4×ATP solution (#A7699 Sigma/Aldrich; St. Louis, Mo.) were prepared in 1× reaction buffer. 15 μL of PI3K enzymes and lipid substrate mix were pre-incubated in a Corning (#3573) 384-well, black, non-treated microtiter plate (Corning, N.Y.) for 30 min at 25° C. with a 0.5 μL volume of 50% DMSO and serially diluted compounds prepared in 50% DMSO. Lipid kinase reactions were started with the addition of 5 μL of ATP solution, mixed for 15 sec on a rotary plate shaker and incubated for 30-60 minutes at 25° C. Next, reactions were stopped with a 5 μL addition of Stop solution immediately followed by a 5 μL volume of Detection Mix. Stopped reactions were equilibrated for 1 and 18 hrs at room temperature and read in a Synergy^4 plate reader from BioTek (Winooski, Vt.) at λex 330-80/λem 620-35 and λem 665-7.5. At the conclusion of each assay, the HTRF ratio from fluorescence emission values for each well was calculated and % Inhibition determined from averaged controls wells (+/−PI3K enzyme). % Inhibition values for each compound were then plotted against inhibitor concentration to estimate IC50 from log [Inhibitor]vs Response, Variable Slope model in GraphPad Prism from GraphPad Software (San Diego, Calif.).
[Reagent] used in optimized protocol:
(ATP KMapp for both enzymes was estimated to be 40-70 μM)
(In general: TR-FRET usually uses a lanthanide donor and a delayed reading to cut background.)

The target in another assay is T2, PI3Kα (Homo sapiens, UniProt P42336).
T2 construct: purchased Millipore 14-602
T2 sequence (P42336 whole entry): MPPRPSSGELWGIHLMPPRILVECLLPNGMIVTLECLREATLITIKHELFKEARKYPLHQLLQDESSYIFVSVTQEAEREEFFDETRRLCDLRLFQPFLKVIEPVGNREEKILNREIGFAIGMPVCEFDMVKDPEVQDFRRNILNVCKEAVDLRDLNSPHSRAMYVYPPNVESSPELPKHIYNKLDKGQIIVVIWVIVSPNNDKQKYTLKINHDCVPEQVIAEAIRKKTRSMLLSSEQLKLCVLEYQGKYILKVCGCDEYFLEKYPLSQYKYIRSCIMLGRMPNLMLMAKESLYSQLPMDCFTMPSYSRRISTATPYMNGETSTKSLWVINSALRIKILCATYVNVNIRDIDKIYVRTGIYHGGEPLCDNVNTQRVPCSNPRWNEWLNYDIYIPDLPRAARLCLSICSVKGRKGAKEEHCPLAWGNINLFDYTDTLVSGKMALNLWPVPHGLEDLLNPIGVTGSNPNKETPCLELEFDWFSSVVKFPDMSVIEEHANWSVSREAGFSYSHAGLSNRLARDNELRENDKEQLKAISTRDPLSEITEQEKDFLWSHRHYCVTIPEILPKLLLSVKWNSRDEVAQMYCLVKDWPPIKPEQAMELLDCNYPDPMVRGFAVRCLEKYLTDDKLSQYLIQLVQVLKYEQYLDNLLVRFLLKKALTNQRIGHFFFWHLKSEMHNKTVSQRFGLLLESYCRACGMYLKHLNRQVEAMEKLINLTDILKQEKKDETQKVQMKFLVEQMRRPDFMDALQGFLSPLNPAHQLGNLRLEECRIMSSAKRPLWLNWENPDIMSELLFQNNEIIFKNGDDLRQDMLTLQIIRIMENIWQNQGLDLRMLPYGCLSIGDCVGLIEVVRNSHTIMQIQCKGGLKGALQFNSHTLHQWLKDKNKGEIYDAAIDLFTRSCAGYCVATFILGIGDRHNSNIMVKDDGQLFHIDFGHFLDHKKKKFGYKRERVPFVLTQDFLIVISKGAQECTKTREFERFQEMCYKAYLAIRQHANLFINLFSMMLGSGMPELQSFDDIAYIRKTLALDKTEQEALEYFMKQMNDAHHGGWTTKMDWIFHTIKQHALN
T2 sequence (P27986 whole entry partner): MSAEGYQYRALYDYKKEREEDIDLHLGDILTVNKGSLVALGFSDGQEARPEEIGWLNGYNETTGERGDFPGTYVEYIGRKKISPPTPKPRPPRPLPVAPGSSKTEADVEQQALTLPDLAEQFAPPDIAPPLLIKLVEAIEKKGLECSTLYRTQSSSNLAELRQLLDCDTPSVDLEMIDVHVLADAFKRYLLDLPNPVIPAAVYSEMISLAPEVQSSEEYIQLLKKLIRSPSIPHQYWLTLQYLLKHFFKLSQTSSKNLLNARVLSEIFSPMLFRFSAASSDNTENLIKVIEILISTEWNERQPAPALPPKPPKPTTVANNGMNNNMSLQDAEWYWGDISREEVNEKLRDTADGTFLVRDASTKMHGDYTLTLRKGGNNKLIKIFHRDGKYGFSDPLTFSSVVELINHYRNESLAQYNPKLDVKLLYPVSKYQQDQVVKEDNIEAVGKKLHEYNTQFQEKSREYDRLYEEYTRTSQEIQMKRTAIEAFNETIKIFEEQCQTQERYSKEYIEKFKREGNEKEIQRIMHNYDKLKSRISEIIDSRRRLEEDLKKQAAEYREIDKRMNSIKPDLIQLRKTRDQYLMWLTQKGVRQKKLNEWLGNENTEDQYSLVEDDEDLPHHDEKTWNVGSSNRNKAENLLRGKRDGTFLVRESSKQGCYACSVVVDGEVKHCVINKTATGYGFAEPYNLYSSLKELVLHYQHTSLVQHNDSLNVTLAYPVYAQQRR
Briefly: Mass spectrometry for PI3K (covalent modification of intact protein, MALDI). The class given is binding. As to the method:
Mass Spectrometry for PI3K
Intact PI3Kα (Millipore, 14-602) was incubated for 1 hr at a 10-fold excess of I-11 to protein. Aliquots (5 μl) of the samples were diluted with 15 μl of 0.2% TFA prior to micro C4 ZipTipping directly onto the MALDI target using Sinapinic acid as the desorption matrix (10 mg/mL in 0.1% TFA:Acetonitrile 50:50). […] Other compounds that modify PI3Kα >50% after 1 hr include I-1, I-2, I-12, I-17, and I-19.

T1 sequence (P42336 whole entry): as the sequence (P42336 whole entry) above
T1 sequence (P27986 whole entry partner): as the sequence (P27986 whole entry partner) above

With `CC(C)=CC(=O)CCC(=O)N1CCN(c2ccc(-c3cc(-c4cnc(N)nc4)nc(N4CCOCC4)c3)cc2)CC1` [I-1, 1-(4-(4-(2-(2-aminopyrimidin-5-yl)-6-morpholinopyridin-4-yl)phenyl)piperazin-1-yl)-6-methylhept-5-ene-1,4-dione], the IC50 at PI3Kα (p110α/p85α) lay in the range of 100 to 1000 nM.
With `CC(C)=CC(=O)CCC(=O)Nc1ccc(C#Cc2cc(-c3cnc(N)nc3)nc(N3CCOCC3)c2)cc1` [I-2, N-(4-((2-(2-aminopyrimidin-5-yl)-6-morpholinopyridin-4-yl)ethynyl)phenyl)-6-methyl-4-oxohept-5-enamide], the IC50 at PI3Kα (p110α/p85α) lay in the range of 10 to 100 nM.
Regarding `C/C=C/C(=O)Nc1ccc(CC(=O)N2CC=C(c3cc(-c4cnc(N)nc4)nc(N4CCOCC4)c3)CC2)cc1` [I-3], on PI3Kα (p110α/p85α), the IC50 fell in the range of 100 to 1000 nM.
Same read-out and setting: then `Nc1ncc(-c2cc(C3=CCN(C(=O)Cc4ccc(NC(=O)/C=C(\C5CC5)C(F)(F)F)cc4)CC3)cc(N3CCOCC3)n2)cn1` [I-4], with 10 to 100 nM.
Same read-out and setting: as for `Nc1ncc(-c2cc(C3=CCN(C(=O)Cc4ccc(NC(=O)/C=C(\c5ccccc5)C(F)(F)F)cc4)CC3)cc(N3CCOCC3)n2)cn1` [I-5], the figure is 10 to 100 nM; as for `C/C(=C\C(=O)Nc1ccc(CC(=O)N2CC=C(c3cc(-c4cnc(N)nc4)nc(N4CCOCC4)c3)CC2)cc1)C(F)(F)F` [I-6], 100 to 1000 nM; as for `C/C(=C/C(=O)Nc1ccc(CC(=O)N2CC=C(c3cc(-c4cnc(N)nc4)nc(N4CCOCC4)c3)CC2)cc1)C(F)(F)F` [I-7], 100 to 1000 nM.
For the compound `CC(C)/C(=C\C(=O)Nc1ccc(CC(=O)N2CC=C(c3cc(-c4cnc(N)nc4)nc(N4CCOCC4)c3)CC2)cc1)C(F)(F)F` [I-8], the IC50 on PI3Kα (p110α/p85α) lay within 100 to 1000 nM.
Still for that read-out and setting: as for `CC(C)/C(=C/C(=O)Nc1ccc(CC(=O)N2CC=C(c3cc(-c4cnc(N)nc4)nc(N4CCOCC4)c3)CC2)cc1)C(F)(F)F` [I-9], the figure is 10 to 100 nM; as for `C/C=C/C(=O)Nc1ccc(CC(=O)N2CCN(c3cc(-c4cnc(N)nc4)nc(N4CCOCC4)c3)CC2)cc1` [I-10], 100 to 1000 nM.
Consider `Nc1ncc(-c2cc(N3CCN(C(=O)Cc4ccc(NC(=O)/C=C(\C5CC5)C(F)(F)F)cc4)CC3)cc(N3CCOCC3)n2)cn1` [I-11], for which the “covalent modification of PI3Kα by MS analysis (FIG. 1)” value at PI3Kα is reported as “confirming covalent modification”. At PI3Kα (intact PI3Kα incubated 1 hr, 10-fold excess of compound to protein), the “modification of PI3Kα” value stood at 87%. For the same compound, the “mass shift of PI3K after incubation with compound” value on PI3Kα (intact PI3Kα incubated 1 hr, 10-fold excess of compound, MALDI centroid mass) is reported as 555 Da. Moreover, the IC50 at PI3Kα (p110α/p85α) was 10 to 100 nM.
Regarding `Nc1ncc(-c2cc(N3CCN(C(=O)Cc4ccc(NC(=O)/C=C(\c5ccccc5)C(F)(F)F)cc4)CC3)cc(N3CCOCC3)n2)cn1` [I-12], on PI3Kα (p110α/p85α), the IC50 fell in the range of 10 to 100 nM.
On the same count and under the same terms, then `C/C(=C\C(=O)Nc1ccc(CC(=O)N2CCN(c3cc(-c4cnc(N)nc4)nc(N4CCOCC4)c3)CC2)cc1)C(F)(F)F` [I-13], with 100 to 1000 nM; and `C/C(=C/C(=O)Nc1ccc(CC(=O)N2CCN(c3cc(-c4cnc(N)nc4)nc(N4CCOCC4)c3)CC2)cc1)C(F)(F)F` [I-14], with 100 to 1000 nM.
With `CC(C)/C(=C\C(=O)Nc1ccc(CC(=O)N2CCN(c3cc(-c4cnc(N)nc4)nc(N4CCOCC4)c3)CC2)cc1)C(F)(F)F` [I-15], the IC50 at PI3Kα (p110α/p85α) lay in the range of 100 to 1000 nM.
Still for that read-out and setting: then `CC(C)/C(=C/C(=O)Nc1ccc(CC(=O)N2CCN(c3cc(-c4cnc(N)nc4)nc(N4CCOCC4)c3)CC2)cc1)C(F)(F)F` [I-16], with 10 to 100 nM; and `C=CC(=O)Nc1ccc2sc(N3CCN(c4cc(-c5cnc(N)nc5)nc(N5CCOCC5)c4)CC3)nc2c1` [I-17], with 10 to 100 nM.
